The values below come from patent US20030108629A1, “Compositions and methods for prostate and kidney health and disorders, an herbal preparation” (priority 2001, published 2003).

The experiment is described as follows: Case report: incontinence person with enlarged prostate. The class given is in vivo, human. The note with it: prescribed for enlarged prostate. From the text:
The 9-herb composition and Incontinence. Person diagnosed with having an enlarged prostate suffered from frequent-urination problems including increased daily frequency and reduced volume. They had the urge to urinate every two hours and the amount was only a few drops. Their symptoms were attributed to old age. […] They are able to urinate what they consider a normal amount of urine in a steady stream as opposed to the dribbling they experienced prior to taking the 9-herb composition. […] Because they are sleeping better, they have more energy throughout the day.

On to `CC(C)(C)NC(=O)[C@H]1CC[C@H]2[C@@H]3CC[C@H]4NC(=O)C=C[C@]4(C)[C@H]3CC[C@]12C` [PROSCAR], for which the “effect on urination problem” value is given as “did not alleviate the urination problem”.
